Experimental data as given in US9365548B2, “Benzoimidazol-2-yl pyrimidines and pyrazines as modulators of the histamine H4 receptor” (Janssen Pharmaceutica NV, priority 2006, dated 2016).

Each molecule was assayed against T1, Recombinant Human Histamine H4 Receptor (Homo sapiens, UniProt Q9H3N8) (assay: Binding Assay on Recombinant Human Histamine H4 Receptor). Conditions: competition binding with 3H-histamine, membranes of SK-N-MC or COS7 cells expressing human histamine H4 receptor; Ki by Cheng-Prusoff (KD 5 nM, ligand 5 nM); average of results obtained.
T1 construct: expressed in transfected cells; host or cells: SK-N-MC cells or COS7 cells, transiently transfected; cell membranes used
Source text: Additional examples of embodiments of this invention are provided by hemitartrate salts of compounds of Formula (I) and by hydrates, such as monohydrates and dihydrates, of compounds of Formula (I). […]

Molecule	Ki
COc1ccc2[nH]c(-c3cnc(NCCCC4CCN(C)CC4)nc3C)nc2c1 [Example 37, [5-(5-Methoxy-1H-benzoimidazol-2-yl)-4-methyl-pyrimidin-2-yl]-[3-(1-methyl-piperidin-4-yl)-propyl]-amine]	81 nM
CCc1nc(NCCCC2CCN(C)CC2)ncc1-c1nc2c(C)cc(C)cc2[nH]1 [Example 42, [5-(4,6-Dimethyl-1H-benzoimidazol-2-yl)-4-ethyl-pyrimidin-2-yl]-[3-(1-methyl-piperidin-4-yl)-propyl]-amine]	22 nM
CCc1nc(NCCCC2CCN(C)CC2)ncc1-c1nc2c(C)cccc2[nH]1 [Example 43, [4-Ethyl-5-(4-methyl-1H-benzoimidazol-2-yl)-pyrimidin-2-yl]-[3-(1-methyl-piperidin-4-yl)-propyl]-amine]	110 nM
Cc1cccc2[nH]c(-c3cnc(NCCCC4CCN(C)CC4)nc3C3CC3)nc12 [Example 44, [4-Cyclopropyl-5-(4-methyl-1H-benzoimidazol-2-yl)-pyrimidin-2-yl]-[3-(1-methyl-piperidin-4-yl)-propyl]-amine]	560 nM
Cc1ccc2[nH]c(-c3cnc(NCCCC4CCN(C)CC4)nc3C3CC3)nc2c1C [Example 45, [4-Cyclopropyl-5-(4,5-dimethyl-1H-benzoimidazol-2-yl)-pyrimidin-2-yl]-[3-(1-methyl-piperidin-4-yl)-propyl]-amine]	390 nM
Cc1cc(F)cc2[nH]c(-c3cnc(NCCCC4CCN(C)CC4)nc3C3CC3)nc12 [Example 46, [4-Cyclopropyl-5-(6-fluoro-4-methyl-1H-benzoimidazol-2-yl)-pyrimidin-2-yl]-[3-(1-methyl-piperidin-4-yl)-propyl]-amine]	230 nM
Cc1cc(C)c2nc(-c3cnc(NCCCC4CCN(C)CC4)nc3C3CC3)[nH]c2c1 [Example 47, [4-Cyclopropyl-5-(4,6-dimethyl-1H-benzoimidazol-2-yl)-pyrimidin-2-yl]-[3-(1-methyl-piperidin-4-yl)-propyl]-amine]	99 nM
Cc1c(F)ccc2[nH]c(-c3cnc(NCCCC4CCN(C)CC4)nc3C3CC3)nc12 [Example 48, [4-Cyclopropyl-5-(5-fluoro-4-methyl-1H-benzoimidazol-2-yl)-pyrimidin-2-yl]-[3-(1-methyl-piperidin-4-yl)-propyl]-amine]	140 nM
[5-(4,5-Dimethyl-1H-benzoimidazol-2-yl)-4-ethyl-pyrimidin-2-yl]-methyl-[3-(1-methyl-piperidin-4-yl)-propyl]-amine [Example 8]	29 nM

Now those with a lower Ki, led by results:

Ki	Molecule
2 nM	Cc1nc(NCCCC2CCN(C)CC2)ncc1-c1nc2c(Cl)cc(C(F)(F)F)cc2[nH]1 [Example 38, [5-(4-Chloro-6-trifluoromethyl-1H-benzoimidazol-2-yl)-4-methyl-pyrimidin-2-yl]-[3-(1-methyl-piperidin-4-yl)-propyl]-amine]
15 nM	Cc1nc(NCCCC2CCN(C)CC2)ncc1-c1nc2cc(Cl)c(F)cc2[nH]1 [Example 39, [5-(5-Chloro-6-fluoro-1H-benzoimidazol-2-yl)-4-methyl-pyrimidin-2-yl]-[3-(1-methyl-piperidin-4-yl)-propyl]-amine]
7 nM	Cc1nc(NCCCC2CCN(C)CC2)ncc1-c1nc2cc(Cl)ccc2[nH]1 [Example 40, [5-(5-Chloro-1H-benzoimidazol-2-yl)-4-methyl-pyrimidin-2-yl]-[3-(1-methyl-piperidin-4-yl)-propyl]-amine]
6 nM	Cc1nc(NCCCC2CCN(C)CC2)ncc1-c1nc2cc(Cl)c(Cl)cc2[nH]1 [Example 41, [5-(5,6-Dichloro-1H-benzoimidazol-2-yl)-4-methyl-pyrimidin-2-yl]-[3-(1-methyl-piperidin-4-yl)-propyl]-amine]
